The source of these data is ChEMBL document CHEMBL6182876, “Design, synthesis and preliminary structure-activity relationship of 2-iminothiazolidine-4-one derivatives against Schistosoma japonicum in vitro and in vivo” (Eur J Med Chem, 2025).

Test [1] concerns Schistosoma japonicum. The test can be described thus: Anti-schistosomal activity against adult Schistosoma japonicum assessed as worm mortality at 100 uM measured at 4 hrs relative to control. It is filed as functional.
The subject of test [2] is Schistosoma japonicum. The test can be described thus: Anti-schistosomal activity against adult Schistosoma japonicum assessed as worm mortality at 100 uM measured at 48 hrs relative to control. It is filed as functional.
The subject of test [3] is Schistosoma japonicum. The test can be described thus: Anti-schistosomal activity against adult Schistosoma japonicum assessed as worm mortality at 100 uM measured at 12 hrs relative to control. It is filed as functional.
In test [4] the test system is Schistosoma japonicum. The test can be described thus: Anti-schistosomal activity against adult Schistosoma japonicum measured at 72 hrs. It is filed as functional, organism-based.
Test [5] deals with Schistosoma japonicum. The test can be described thus: Anti-schistosomal activity against adult Schistosoma japonicum assessed as worm mortality at 100 uM measured at 72 hrs relative to control. The test is classed as functional.
The test system of test [6] is Schistosoma japonicum. The test can be described thus: Anti-schistosomal activity against adult Schistosoma japonicum assessed as worm mortality at 100 uM measured at 24 hrs relative to control. The test is classed as functional.
Test [7] has as its system Schistosoma japonicum. Briefly: Anti-schistosomal activity against adult Schistosoma japonicum assessed as worm mortality at 100 uM measured at 8 hrs relative to control. The test is classed as functional.

As for `CCOC(=O)/C=C1\S/C(=N\c2ccccc2)N(CCN(CC)CC)C1=O`, the mortality at 100 µM in the test with Schistosoma japonicum [1] came out at 0%; in the test with Schistosoma japonicum [2], 10%; with Schistosoma japonicum [3], 0%; with Schistosoma japonicum [5], 30%; with Schistosoma japonicum [6] it was 10%; in the test on Schistosoma japonicum [7], 0%. In addition, the IC50 in the test on Schistosoma japonicum [4] was over 100 µM.
Consider `CCOC(=O)/C=C1\S/C(=N\c2cccc(Cl)c2)N(CCCN2CCN(C)CC2)C1=O`, for which the mortality at 100 µM with Schistosoma japonicum [1] was 10%; in the test with Schistosoma japonicum [2] it was 100%; with Schistosoma japonicum [3] it was 100%; in the test with Schistosoma japonicum [5] it was 100%; with Schistosoma japonicum [6], 100%; with Schistosoma japonicum [7], 30%. In the test with Schistosoma japonicum [4], this compound gave an IC50 of 41.2 µM.
For the compound `CCOC(=O)/C=C1\S/C(=N\c2ccccc2)N(CCCN2CCCC2)C1=O`, the mortality at 100 µM in the test with Schistosoma japonicum [1] came to 0%; in the test on Schistosoma japonicum [2], 30%; with Schistosoma japonicum [3], 0%; with Schistosoma japonicum [5], 100%; with Schistosoma japonicum [6] it was 20%; in the test with Schistosoma japonicum [7], 0%. For the same compound, it took 77.9 µM to reach half-maximal inhibition in the test with Schistosoma japonicum [4] (IC50).
For `CCOC(=O)/C=C1\S/C(=N\c2ccc([N+](=O)[O-])cc2)N(CCCN2CCN(C)CC2)C1=O`, the mortality at 100 µM in the test on Schistosoma japonicum [1] is 0%; in the test with Schistosoma japonicum [2], 100%; in the test with Schistosoma japonicum [3], 0%; in the test with Schistosoma japonicum [5] it was 100%; with Schistosoma japonicum [6], 10%; in the test with Schistosoma japonicum [7], 0%. This compound displayed an IC50 with Schistosoma japonicum [4] of 72 µM.
As for `Cc1cccc(/C=C2\S/C(=N\c3ccc(C(F)(F)F)cc3)N(CCCN3CCN(C)CC3)C2=O)c1`, the mortality at 100 µM worked out at 0% in the test with Schistosoma japonicum [1]; 90% in the test on Schistosoma japonicum [2]; 0% with Schistosoma japonicum [3]; 100% in the test with Schistosoma japonicum [5]; 20% with Schistosoma japonicum [6]; 0% in the test on Schistosoma japonicum [7].
Turning to `CCOC(=O)/C=C1\S/C(=N\c2ccccc2)N(CCN2CCCC2)C1=O`, the mortality at 100 µM in the test on Schistosoma japonicum [1] came to 0%; with Schistosoma japonicum [2], 50%; with Schistosoma japonicum [3], 0%; in the test with Schistosoma japonicum [5], 50%; in the test with Schistosoma japonicum [6], 0%; in the test on Schistosoma japonicum [7], 0%. Besides, the IC50 in the test with Schistosoma japonicum [4] is over 100 µM.
Consider `CCOC(=O)/C=C1\S/C(=N\c2ccccc2)N(CCN(C)C)C1=O`, for which the mortality at 100 µM in the test with Schistosoma japonicum [1] was determined as 0%; with Schistosoma japonicum [2] it was 0%; with Schistosoma japonicum [3], 0%; in the test on Schistosoma japonicum [5], 10%; in the test on Schistosoma japonicum [6], 0%; in the test on Schistosoma japonicum [7] it was 0%. For the same compound, the IC50 in the test on Schistosoma japonicum [4] is over 100 µM.
Regarding `CCOC(=O)/C=C1\S/C(=N\c2cc(C(F)(F)F)cc(C(F)(F)F)c2)N(CCCN2CCN(C)CC2)C1=O`, the mortality at 100 µM is 0% in the test with Schistosoma japonicum [1]; 100% with Schistosoma japonicum [2]; 100% with Schistosoma japonicum [3]; 100% with Schistosoma japonicum [5]; 100% in the test on Schistosoma japonicum [6]; 40% in the test on Schistosoma japonicum [7]. In the test with Schistosoma japonicum [4], this compound had an IC50 of 36.4 µM.
In the case of `CCOC(=O)/C=C1\S/C(=N\c2ccc(F)cc2)N(CCCN2CCN(C)CC2)C1=O`, the mortality at 100 µM in the test with Schistosoma japonicum [1] came out at 0%; in the test with Schistosoma japonicum [2], 80%; in the test with Schistosoma japonicum [3], 0%; in the test with Schistosoma japonicum [5], 100%; in the test with Schistosoma japonicum [6] it was 30%; in the test on Schistosoma japonicum [7] it was 0%. In the test with Schistosoma japonicum [4], this compound came in with an IC50 of 42.8 µM.
Take `CCOC(=O)/C=C1\S/C(=N\c2ccc(Cl)c(Cl)c2)N(CCCN2CCN(C)CC2)C1=O`: the mortality at 100 µM was determined as 0% in the test on Schistosoma japonicum [1]; 100% with Schistosoma japonicum [2]; 100% in the test with Schistosoma japonicum [3]; 100% with Schistosoma japonicum [5]; 100% in the test with Schistosoma japonicum [6]; 40% in the test on Schistosoma japonicum [7]. This compound also displayed an IC50 in the test with Schistosoma japonicum [4] of 39.3 µM.
As for `CCOC(=O)/C=C1\S/C(=N\c2ccccc2Br)N(CCCN2CCN(C)CC2)C1=O`, the mortality at 100 µM in the test on Schistosoma japonicum [1] stood at 0%; with Schistosoma japonicum [2] it was 100%; with Schistosoma japonicum [3] it was 60%; in the test with Schistosoma japonicum [5] it was 100%; in the test on Schistosoma japonicum [6] it was 100%; in the test with Schistosoma japonicum [7], 20%. In the test with Schistosoma japonicum [4], 30.9 µM corresponded to half-maximal inhibition (IC50).
Regarding `Cc1ccc(/C=C2\S/C(=N\c3ccc(C(F)(F)F)cc3)N(CCCN3CCN(C)CC3)C2=O)cc1`, the mortality at 100 µM worked out at 0% in the test with Schistosoma japonicum [1]; 70% in the test on Schistosoma japonicum [2]; 0% in the test on Schistosoma japonicum [3]; 100% in the test on Schistosoma japonicum [5]; 30% with Schistosoma japonicum [6]; 0% in the test with Schistosoma japonicum [7].
Regarding `CN1CCN(CCCN2C(=O)/C(=C/c3cccc(Cl)c3)S/C2=N\c2ccc(C(F)(F)F)cc2)CC1`, the mortality at 100 µM in the test on Schistosoma japonicum [1] is 20%; with Schistosoma japonicum [2] it was 100%; in the test on Schistosoma japonicum [3], 70%; in the test with Schistosoma japonicum [5], 100%; in the test with Schistosoma japonicum [6] it was 100%; in the test with Schistosoma japonicum [7], 40%.
On to `CCOC(=O)/C=C1\S/C(=N\c2ccc(CC)cc2)N(CCCN2CCN(C)CC2)C1=O`, for which the mortality at 100 µM is 0% in the test with Schistosoma japonicum [1]; 100% in the test on Schistosoma japonicum [2]; 10% in the test on Schistosoma japonicum [3]; 100% in the test with Schistosoma japonicum [5]; 60% with Schistosoma japonicum [6]; 0% in the test on Schistosoma japonicum [7].
`CN1CCN(CCCN2C(=O)/C(=C/c3ccccc3)S/C2=N\c2ccc(C(F)(F)F)cc2)CC1`: the mortality at 100 µM was found to be 0% with Schistosoma japonicum [1]; 20% in the test with Schistosoma japonicum [2]; 0% with Schistosoma japonicum [3]; 30% in the test on Schistosoma japonicum [5]; 10% in the test with Schistosoma japonicum [6]; 0% with Schistosoma japonicum [7].
`COc1ccccc1/C=C1\S/C(=N\c2ccc(C(F)(F)F)cc2)N(CCCN2CCN(C)CC2)C1=O`: the mortality at 100 µM came to 0% in the test with Schistosoma japonicum [1]; 10% in the test on Schistosoma japonicum [2]; 0% in the test on Schistosoma japonicum [3]; 70% in the test on Schistosoma japonicum [5]; 0% in the test on Schistosoma japonicum [6]; 0% with Schistosoma japonicum [7].
`CN1CCN(CCCN2C(=O)/C(=C/c3ccccc3F)S/C2=N\c2ccc(C(F)(F)F)cc2)CC1`: the mortality at 100 µM was 0% in the test on Schistosoma japonicum [1]; 0% in the test on Schistosoma japonicum [2]; 0% in the test with Schistosoma japonicum [3]; 20% with Schistosoma japonicum [5]; 0% in the test with Schistosoma japonicum [6]; 0% in the test on Schistosoma japonicum [7].
Regarding `CN1CCN(CCCN2C(=O)/C(=C/c3ccc([N+](=O)[O-])cc3)S/C2=N\c2ccc(C(F)(F)F)cc2)CC1`, the mortality at 100 µM in the test with Schistosoma japonicum [1] is 0%; in the test on Schistosoma japonicum [2], 30%; in the test on Schistosoma japonicum [3], 0%; with Schistosoma japonicum [5] it was 70%; in the test with Schistosoma japonicum [6] it was 0%; with Schistosoma japonicum [7], 0%.
With `Cc1ccccc1/C=C1\S/C(=N\c2ccc(C(F)(F)F)cc2)N(CCCN2CCN(C)CC2)C1=O`, the mortality at 100 µM in the test on Schistosoma japonicum [1] came out at 0%; in the test with Schistosoma japonicum [2], 10%; in the test with Schistosoma japonicum [3] it was 0%; in the test with Schistosoma japonicum [5], 30%; in the test on Schistosoma japonicum [6], 0%; in the test with Schistosoma japonicum [7], 0%.
Consider `CN1CCN(CCCN2C(=O)/C(=C/c3ccc(Cl)cc3)S/C2=N\c2ccc(C(F)(F)F)cc2)CC1`, for which the mortality at 100 µM with Schistosoma japonicum [1] is 0%; in the test with Schistosoma japonicum [2], 100%; in the test on Schistosoma japonicum [3], 0%; in the test on Schistosoma japonicum [5], 100%; with Schistosoma japonicum [6] it was 100%; in the test on Schistosoma japonicum [7], 0%.
With `COc1ccc(/C=C2\S/C(=N\c3ccc(C(F)(F)F)cc3)N(CCCN3CCN(C)CC3)C2=O)cc1`, the mortality at 100 µM with Schistosoma japonicum [1] came out at 0%; with Schistosoma japonicum [2], 20%; with Schistosoma japonicum [3], 0%; in the test with Schistosoma japonicum [5] it was 60%; with Schistosoma japonicum [6] it was 0%; in the test on Schistosoma japonicum [7] it was 0%.
Turning to `CN1CCN(CCCN2C(=O)/C(=C/c3ccccc3Cl)S/C2=N\c2ccc(C(F)(F)F)cc2)CC1`, the mortality at 100 µM in the test with Schistosoma japonicum [1] is 0%; with Schistosoma japonicum [2] it was 0%; in the test on Schistosoma japonicum [3], 0%; in the test with Schistosoma japonicum [5], 40%; in the test with Schistosoma japonicum [6], 0%; in the test with Schistosoma japonicum [7] it was 0%.
In the case of `CN1CCN(CCCN2C(=O)CS/C2=N\c2ccc(C(F)(F)F)cc2)CC1`, the mortality at 100 µM worked out at 0% in the test on Schistosoma japonicum [1]; 0% in the test with Schistosoma japonicum [2]; 0% with Schistosoma japonicum [3]; 10% with Schistosoma japonicum [5]; 0% with Schistosoma japonicum [6]; 0% with Schistosoma japonicum [7].
With `CN1CCN(CCCN2C(=O)/C(=C/c3cccc(F)c3)S/C2=N\c2ccc(C(F)(F)F)cc2)CC1`, the mortality at 100 µM in the test with Schistosoma japonicum [1] worked out at 0%; with Schistosoma japonicum [2], 30%; in the test with Schistosoma japonicum [3] it was 0%; in the test with Schistosoma japonicum [5], 30%; in the test on Schistosoma japonicum [6], 0%; with Schistosoma japonicum [7] it was 0%.
For `Cc1cc(/C=C2\S/C(=N\c3ccc(C(F)(F)F)cc3)N(CCCN3CCN(C)CC3)C2=O)ccc1F`, the mortality at 100 µM worked out at 0% in the test on Schistosoma japonicum [1]; 20% in the test on Schistosoma japonicum [2]; 0% in the test on Schistosoma japonicum [3]; 30% in the test with Schistosoma japonicum [5]; 10% in the test with Schistosoma japonicum [6]; 0% in the test on Schistosoma japonicum [7].
Turning to `COc1cccc(/C=C2\S/C(=N\c3ccc(C(F)(F)F)cc3)N(CCCN3CCN(C)CC3)C2=O)c1`, the mortality at 100 µM with Schistosoma japonicum [1] came to 0%; in the test with Schistosoma japonicum [2] it was 100%; in the test with Schistosoma japonicum [3] it was 20%; in the test with Schistosoma japonicum [5], 100%; in the test with Schistosoma japonicum [6], 70%; with Schistosoma japonicum [7] it was 0%.
